Data published in article PMC6270420, “Antibacterial Activity of Salicylanilide 4-(Trifluoromethyl)benzoates” (Molecules, 2013).
≈ marks a conversion by molar mass, not a printed value. Where two headings read alike, the source gives them in different places.

Tests used:
Mtb. Praha 131 (XDR-TB) = assay: microbe, parasite or virus in culture; format: cell-based; conditions: Mycobacterium tuberculosis, read-out: MIC Mtb. Praha 131 (XDR-TB)
[1] = system: Mycobacterium kansasii 235/80; assay: Antimycobacterial MIC micromethod; format: cell-based; conditions: read-out: MIC M. kansasii 235/80
[2] = system: Mycobacterium tuberculosis 331/88 (H37Rv); assay: Antimycobacterial MIC micromethod, Šula's medium; format: cell-based; conditions: read-out: MIC Mtb. 331/88
Mtb. 9449/2006 = assay: microbe, parasite or virus in culture; format: cell-based; conditions: Mycobacterium tuberculosis, read-out: MIC Mtb. 9449/2006
Mtb. 53/2009 = assay: microbe, parasite or virus in culture; format: cell-based; conditions: Mycobacterium tuberculosis, read-out: MIC Mtb. 53/2009
Mtb. 234/2005 = assay: microbe, parasite or virus in culture; format: cell-based; conditions: Mycobacterium tuberculosis, read-out: MIC Mtb. 234/2005
Mtb. Praha 1 = assay: microbe, parasite or virus in culture; format: cell-based; conditions: Mycobacterium tuberculosis, read-out: MIC Mtb. Praha 1
Mtb. 7357/1988 = assay: microbe, parasite or virus in culture; format: cell-based; conditions: Mycobacterium tuberculosis, read-out: MIC Mtb. 7357/1988
[3] = system: M. kansasii 6509/96 (clinically isolated strain); assay: Antimycobacterial MIC micromethod; format: cell-based; conditions: Mycobacterium kansasii, read-out: MIC M. kansasii 6509/96
[4] = system: Mycobacterium avium 330/88; assay: Antimycobacterial MIC micromethod; format: cell-based
[5] = target: T1, mycobacterial isocitrate lyase (ICL1, Rv0467) (Mycobacterium tuberculosis, UniProt P9WKK7); assay: Isocitrate lyase inhibition assay (ICL1); format: biochemical, Mycobacterium tuberculosis H37Rv; conditions: 10 μmol/L; read-out: % ICL inhibition at 10 μmol/L (± standard deviation)
T1 construct: His tag (from pET-28b(+)); made in house; host or cells: E. coli BL21(DE3), pET-28b(+) plasmid
T1 sequence (P9WKK7 1-428): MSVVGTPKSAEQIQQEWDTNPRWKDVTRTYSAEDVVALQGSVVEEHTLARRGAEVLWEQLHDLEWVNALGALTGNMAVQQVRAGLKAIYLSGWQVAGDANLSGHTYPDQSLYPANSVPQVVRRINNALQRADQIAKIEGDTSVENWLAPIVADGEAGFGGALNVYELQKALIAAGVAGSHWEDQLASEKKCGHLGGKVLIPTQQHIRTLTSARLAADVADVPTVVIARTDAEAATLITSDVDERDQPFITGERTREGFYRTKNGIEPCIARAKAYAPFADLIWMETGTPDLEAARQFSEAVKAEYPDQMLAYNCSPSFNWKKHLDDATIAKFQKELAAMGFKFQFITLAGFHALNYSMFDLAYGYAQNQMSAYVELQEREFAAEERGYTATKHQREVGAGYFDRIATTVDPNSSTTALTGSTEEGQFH

| SMILES | MIC (Mtb. Praha 131 (XDR-TB); 336 h) [µM] | MIC (Mtb. Praha 131 (XDR-TB); 504 h) [µM] | MIC ([1]; 235/80, 168 h, 7 d) [µM] | MIC ([1]; 235/80, 336 h, 14 d) [µM] | MIC ([1]; 235/80, 504 h, 21 d) [µM] | MIC ([2]; 336 h, 14 d) [µM] | MIC ([2]; 504 h, 21 d) [µM] | MIC (Mtb. 9449/2006; 336 h) [µM] | MIC (Mtb. 9449/2006; 504 h) [µM] | MIC (Mtb. 53/2009; 336 h) [µM] | MIC (Mtb. 53/2009; 504 h) [µM] | MIC (Mtb. 234/2005; 336 h) [µM] | MIC (Mtb. 234/2005; 504 h) [µM] | MIC (Mtb. Praha 1; 336 h) [µM] | MIC ([3]; 168 h, 7 d) [µM] | MIC ([3]; 336 h, 14 d) [µM] | MIC ([3]; 504 h, 21 d) [µM] | MIC ([4]; 330/88, 336 h, 14 d) [µM] | MIC ([4]; 330/88, 504 h, 21 d) [µM] | inhibition at 10 µM [5] [%] | further results |
| --- | --- | --- | --- | --- | --- | --- | --- | --- | --- | --- | --- | --- | --- | --- | --- | --- | --- | --- | --- | --- | --- |
| O=C(Oc1ccc(Cl)cc1C(=O)Nc1cccc(Cl)c1)c1ccc(C(F)(F)F)cc1 [1a] | 4 (≈ 1.82 µg/mL) | 4 (≈ 1.82 µg/mL) | 0.5 (≈ 0.227 µg/mL) | 2 (≈ 0.908 µg/mL) | 4 (≈ 1.82 µg/mL) | 2 (≈ 0.908 µg/mL) | 4 (≈ 1.82 µg/mL) | 4 (≈ 1.82 µg/mL) | 4 (≈ 1.82 µg/mL) | 4 (≈ 1.82 µg/mL) | 4 (≈ 1.82 µg/mL) | 4 (≈ 1.82 µg/mL) | 4 (≈ 1.82 µg/mL) | 4 (≈ 1.82 µg/mL) | 2 (≈ 0.908 µg/mL) | 8 (≈ 3.63 µg/mL) | 8 (≈ 3.63 µg/mL) | 8 (≈ 3.63 µg/mL) | 16 (≈ 7.27 µg/mL) | 18 ± 1.9 | MIC (Mtb. Praha 1; 504 h): 4 µM (≈ 1.82 µg/mL); MIC (Mtb. 7357/1988; 336 h): 4 µM (≈ 1.82 µg/mL); MIC (Mtb. 7357/1988; 504 h): 4 µM (≈ 1.82 µg/mL) |
| O=C(Oc1ccc(Cl)cc1C(=O)Nc1ccc(Cl)cc1)c1ccc(C(F)(F)F)cc1 [1c] | 2 (≈ 0.908 µg/mL) | 2 (≈ 0.908 µg/mL) | 1 (≈ 0.454 µg/mL) | 2 (≈ 0.908 µg/mL) | 2 (≈ 0.908 µg/mL) | 2 (≈ 0.908 µg/mL) | 2 (≈ 0.908 µg/mL) | 2 (≈ 0.908 µg/mL) | 2 (≈ 0.908 µg/mL) | 4 (≈ 1.82 µg/mL) | 4 (≈ 1.82 µg/mL) | 4 (≈ 1.82 µg/mL) | 4 (≈ 1.82 µg/mL) | 2 (≈ 0.908 µg/mL) | 1 (≈ 0.454 µg/mL) | 4 (≈ 1.82 µg/mL) | 4 (≈ 1.82 µg/mL) | 4 (≈ 1.82 µg/mL) | 8 (≈ 3.63 µg/mL) | 12 ± 2.7 | MIC (Mtb. Praha 1; 504 h): 2 µM (≈ 0.908 µg/mL); MIC (Mtb. 7357/1988; 336 h): 2 µM (≈ 0.908 µg/mL); MIC (Mtb. 7357/1988; 504 h): 2 µM (≈ 0.908 µg/mL) |
| O=C(Oc1cc(Cl)ccc1C(=O)Nc1ccc(Cl)cc1)c1ccc(C(F)(F)F)cc1 [1d] | 2 (≈ 0.908 µg/mL) | 4 (≈ 1.82 µg/mL) | 1 (≈ 0.454 µg/mL) | 4 (≈ 1.82 µg/mL) | 4 (≈ 1.82 µg/mL) | 4 (≈ 1.82 µg/mL) | 4 (≈ 1.82 µg/mL) | 4 (≈ 1.82 µg/mL) | 4 (≈ 1.82 µg/mL) | 4 (≈ 1.82 µg/mL) | 4 (≈ 1.82 µg/mL) | 4 (≈ 1.82 µg/mL) | 4 (≈ 1.82 µg/mL) | 2 (≈ 0.908 µg/mL) | 1 (≈ 0.454 µg/mL) | 4 (≈ 1.82 µg/mL) | 4 (≈ 1.82 µg/mL) | 4 (≈ 1.82 µg/mL) | 8 (≈ 3.63 µg/mL) | 12 ± 2.3 | MIC (Mtb. Praha 1; 504 h): 4 µM (≈ 1.82 µg/mL); MIC (Mtb. 7357/1988; 336 h): 4 µM (≈ 1.82 µg/mL); MIC (Mtb. 7357/1988; 504 h): 4 µM (≈ 1.82 µg/mL) |
| O=C(Oc1ccc(Cl)cc1C(=O)Nc1ccc(Br)cc1)c1ccc(C(F)(F)F)cc1 [1i] | 2 (≈ 0.997 µg/mL) | 2 (≈ 0.997 µg/mL) | 1 (≈ 0.499 µg/mL) | 4 (≈ 1.99 µg/mL) | 8 (≈ 3.99 µg/mL) | 2 (≈ 0.997 µg/mL) | 2 (≈ 0.997 µg/mL) | 2 (≈ 0.997 µg/mL) | 4 (≈ 1.99 µg/mL) | 4 (≈ 1.99 µg/mL) | 4 (≈ 1.99 µg/mL) | 2 (≈ 0.997 µg/mL) | 2 (≈ 0.997 µg/mL) | 2 (≈ 0.997 µg/mL) | 2 (≈ 0.997 µg/mL) | 8 (≈ 3.99 µg/mL) | 8 (≈ 3.99 µg/mL) | 8 (≈ 3.99 µg/mL) | 8 (≈ 3.99 µg/mL) | 18 ± 1.2 | MIC (Mtb. Praha 1; 504 h): 2 µM (≈ 0.997 µg/mL); MIC (Mtb. 7357/1988; 336 h): 2 µM (≈ 0.997 µg/mL); MIC (Mtb. 7357/1988; 504 h): 4 µM (≈ 1.99 µg/mL) |
| O=C(Oc1cc(Cl)ccc1C(=O)Nc1cccc(F)c1)c1ccc(C(F)(F)F)cc1 [1l] |  |  | 4 (≈ 1.75 µg/mL) | 8 (≈ 3.5 µg/mL) | 8 (≈ 3.5 µg/mL) | 4 (≈ 1.75 µg/mL) | 4 (≈ 1.75 µg/mL) |  |  |  |  |  |  |  | 8 (≈ 3.5 µg/mL) | 8 (≈ 3.5 µg/mL) | 16 (≈ 7 µg/mL) | 8 (≈ 3.5 µg/mL) | 16 (≈ 7 µg/mL) | ≥ 20 |  |
